Results from the NIST ThermoML archive (doi:10.1016/j.jct.2003.12.012).

Columns and labels:
[1] = molar heat capacity at saturation pressure
[2] = for mass density / vapor or sublimation pressure: Liquid; for mass density: Vibrating tube method
[3] = Molar enthalpy of transition or fusion; settings: Crystal; Adiabatic calorimetry

c1ccc2c3c(sc2c1)CCCC3 [1,2,3,4-tetrahydrodibenzothiophene]
molar heat capacity [J/K/mol], [1]
Settings | Crystal | Liquid
263.64 K, Vacuum adiabatic calorimetry | 221.51 | –
263.71 K, Vacuum adiabatic calorimetry | 222.9 | –
275.03 K, Vacuum adiabatic calorimetry | 216.13 | 256.66
280 K, Vacuum adiabatic calorimetry | – | 259.07
282.32 K, Vacuum adiabatic calorimetry | – | 260.24
283.78 K, Vacuum adiabatic calorimetry | – | 260.98
287.63 K, Vacuum adiabatic calorimetry | – | 262.81
291.46 K, Vacuum adiabatic calorimetry | – | 264.72
298.15 K, Vacuum adiabatic calorimetry | – | 268.09
300 K, Vacuum adiabatic calorimetry | – | 269.02
300.54 K, Vacuum adiabatic calorimetry | – | 269.29
301.1 K, Vacuum adiabatic calorimetry | – | 269.61
315.41 K, Vacuum adiabatic calorimetry | – | 277.04
320 K, Vacuum adiabatic calorimetry | – | 279.47
330.79 K, Vacuum adiabatic calorimetry | – | 285.2
340 K, Vacuum adiabatic calorimetry | – | 290.16
343.22 K, Vacuum adiabatic calorimetry | – | 291.9
359.69 K, Vacuum adiabatic calorimetry | – | 300.83
360 K, Vacuum adiabatic calorimetry | – | 301
376.04 K, Vacuum adiabatic calorimetry | – | 309.7
380 K, Vacuum adiabatic calorimetry | – | 311.85
392 K, Vacuum adiabatic calorimetry | – | 318.35
400 K, Vacuum adiabatic calorimetry | – | 322.67
408.31 K, Vacuum adiabatic calorimetry | – | 327.12
420 K, Vacuum adiabatic calorimetry | – | 333.33
424.94 K, Vacuum adiabatic calorimetry | – | 335.95
437.47 K, Vacuum adiabatic calorimetry | – | 342.54
440 K, Small sample (50 mg) DSC | – | 344.04
460 K, Small sample (50 mg) DSC | – | 355.38
480 K, Small sample (50 mg) DSC | – | 366.09
500 K, Small sample (50 mg) DSC | – | 376.9
520 K, Small sample (50 mg) DSC | – | 387.66
540 K, Small sample (50 mg) DSC | – | 398.39
560 K, Small sample (50 mg) DSC | – | 409.11
580 K, Small sample (50 mg) DSC | – | 419.8
600 K, Small sample (50 mg) DSC | – | 430.43

[2]
Settings | mass density [kg/m3]
323.14 K | 1125.7
348.13 K | 1105.2
373.12 K | 1086
423.11 K | 1046.8
448.11 K | 1028.1

[2]
Settings | Triple point temperature [K] | vapor or sublimation pressure [kPa]
359.98 K, Inclined piston gauge | – | 0.0221
369.98 K, Inclined piston gauge | – | 0.0414
379.97 K, Inclined piston gauge | – | 0.0746
389.97 K, Inclined piston gauge | – | 0.1296
400.17 K, Inclined piston gauge | – | 0.2209
409.96 K, Inclined piston gauge | – | 0.3567
419.97 K, Inclined piston gauge | – | 0.5674
429.96 K, Inclined piston gauge | – | 0.8785
439.96 K, Inclined piston gauge | – | 1.328
449.96 K, Inclined piston gauge | – | 1.962
450.48 K, Ebulliometric method (Recirculating still) | – | 2.002
454.96 K, Inclined piston gauge | – | 2.368
459.96 K, Inclined piston gauge | – | 2.842
469.6 K, Ebulliometric method (Recirculating still) | – | 3.993
478.25 K, Ebulliometric method (Recirculating still) | – | 5.331
491.02 K, Ebulliometric method (Recirculating still) | – | 8
500.6 K, Ebulliometric method (Recirculating still) | – | 10.67
508.29 K, Ebulliometric method (Recirculating still) | – | 13.32
516.36 K, Ebulliometric method (Recirculating still) | – | 16.66
523.05 K, Ebulliometric method (Recirculating still) | – | 19.94
531.82 K, Ebulliometric method (Recirculating still) | – | 25.02
540.67 K, Ebulliometric method (Recirculating still) | – | 31.18
549.55 K, Ebulliometric method (Recirculating still) | – | 38.56
558.49 K, Ebulliometric method (Recirculating still) | – | 47.38
567.47 K, Ebulliometric method (Recirculating still) | – | 57.8
576.48 K, Ebulliometric method (Recirculating still) | – | 70.09
585.54 K, Ebulliometric method (Recirculating still) | – | 84.5
594.67 K, Ebulliometric method (Recirculating still) | – | 101.29
603.84 K, Ebulliometric method (Recirculating still) | – | 120.72
Crystal, Adiabatic calorimetry | 275.03 | –

Settings | Molar enthalpy of transition or fusion [kJ/mol]
[3] | 14.01
